According to patent US8614327B2 (Vertex Pharmaceuticals Incorporated, priority 2004, dated 2013):

Target: T1, ΔF508-CFTR (Homo sapiens, UniProt P13569, DEL508-508)
T1 construct: expressed in transfected cells
Test: Membrane potential optical (FRET/VIPR) assay, identification of potentiator compounds
Type: cell-based
Conditions: Table 3, assay not given; for % Activity: relative efficacy
In short: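 NIH3T3 mouse fibroblasts stably expressing ΔF508-CFTR, temperature-corrected 24 h at 27° C., read on VIPR by FRET between CC2-DMPE and DiSBAC2(3). Potentiators identified in a double-addition format, first adding chloride-free (gluconate) medium with or without compound.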

T1 sequence (P13569 with tags, fused parts or gaps DEL508-508): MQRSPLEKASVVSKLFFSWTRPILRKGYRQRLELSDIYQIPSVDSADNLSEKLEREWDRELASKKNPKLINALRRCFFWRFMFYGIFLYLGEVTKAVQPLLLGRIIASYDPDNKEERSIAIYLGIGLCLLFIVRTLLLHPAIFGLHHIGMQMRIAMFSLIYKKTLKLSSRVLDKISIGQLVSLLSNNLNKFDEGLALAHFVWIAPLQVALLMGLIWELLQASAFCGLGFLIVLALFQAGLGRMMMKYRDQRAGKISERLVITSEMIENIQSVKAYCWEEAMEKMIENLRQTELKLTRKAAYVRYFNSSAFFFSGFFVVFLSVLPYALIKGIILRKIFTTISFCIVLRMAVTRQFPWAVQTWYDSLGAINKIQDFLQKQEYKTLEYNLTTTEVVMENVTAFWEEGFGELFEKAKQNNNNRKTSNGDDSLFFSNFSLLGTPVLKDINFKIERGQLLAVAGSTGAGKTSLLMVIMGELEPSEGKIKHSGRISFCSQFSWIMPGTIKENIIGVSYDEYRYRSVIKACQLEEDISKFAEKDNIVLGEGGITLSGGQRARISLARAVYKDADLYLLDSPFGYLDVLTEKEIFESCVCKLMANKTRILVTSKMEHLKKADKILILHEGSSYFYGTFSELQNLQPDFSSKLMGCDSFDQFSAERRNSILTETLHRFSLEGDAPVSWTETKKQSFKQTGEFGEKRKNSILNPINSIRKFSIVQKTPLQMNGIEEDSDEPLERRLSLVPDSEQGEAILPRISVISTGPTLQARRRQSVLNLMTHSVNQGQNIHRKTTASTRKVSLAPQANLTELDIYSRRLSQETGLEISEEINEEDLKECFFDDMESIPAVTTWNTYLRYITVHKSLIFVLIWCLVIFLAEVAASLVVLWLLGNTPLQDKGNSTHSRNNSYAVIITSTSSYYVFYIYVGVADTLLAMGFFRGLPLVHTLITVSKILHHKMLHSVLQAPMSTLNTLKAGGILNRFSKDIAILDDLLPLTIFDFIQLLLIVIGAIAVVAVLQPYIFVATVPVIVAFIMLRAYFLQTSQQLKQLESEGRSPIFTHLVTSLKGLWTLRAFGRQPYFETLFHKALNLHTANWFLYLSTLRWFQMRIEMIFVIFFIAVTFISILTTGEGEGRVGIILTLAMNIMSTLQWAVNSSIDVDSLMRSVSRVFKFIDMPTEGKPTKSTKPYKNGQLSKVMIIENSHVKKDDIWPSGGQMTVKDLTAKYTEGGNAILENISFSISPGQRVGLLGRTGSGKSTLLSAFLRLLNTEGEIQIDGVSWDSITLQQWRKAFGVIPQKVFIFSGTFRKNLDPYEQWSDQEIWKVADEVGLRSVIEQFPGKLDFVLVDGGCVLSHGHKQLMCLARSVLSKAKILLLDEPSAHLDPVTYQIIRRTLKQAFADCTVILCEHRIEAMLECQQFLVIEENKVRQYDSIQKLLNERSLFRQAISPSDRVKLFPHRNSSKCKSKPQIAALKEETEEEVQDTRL

Structure (SMILES)	EC50 [µM]	% Activity
CC(C)c1cccc(-c2ccccc2NC(=O)c2c[nH]c3ccccc3c2=O)c1 [Compound 290, N-[2-(3-isopropylphenyl)phenyl]-4-oxo-1H-quinoline-3-carboxamide]	< 10	++ (between 25% to 100%)
O=C(Nc1ccccc1-c1nc2ccccc2[nH]1)c1c[nH]c2ccccc2c1=O [Compound 227, N-[2-(3H-benzoimidazol-2-yl)phenyl]-4-oxo-1H-quinoline-3-carboxamide]	25 to 60	+ (<25%)
COc1nc2ccccc2c(OC)c1C(=O)Nc1ccccc1-c1ccccc1 [Compound 210, 2,4-dimethoxy-N-(2-phenylphenyl)-quinoline-3-carboxamide]	10 to 25	++ (between 25% to 100%)
COc1ccc(Cl)cc1-c1cc2cc[nH]c2cc1NC(=O)c1c[nH]c2ccccc2c1=O [Compound 1, N-[5-(5-chloro-2-methoxy-phenyl)-1H-indol-6-yl]-4-oxo-1H-quinoline-3-carboxamide]	< 10	++ (between 25% to 100%)
Nc1cc(Cl)cc(NC(=O)c2c[nH]c3ccccc3c2=O)c1 [Compound 131, N-(3-amino-5-chloro-phenyl)-4-oxo-1H-quinoline-3-carboxamide]		++ (between 25% to 100%)
COc1ccc(NC(=O)c2c[nH]c3ccccc3c2=O)cc1OC [Compound 122, N-(3,4-dimethoxyphenyl)-4-oxo-1H-quinoline-3-carboxamide]	25 to 60	+ (<25%)
CC(C)c1ccc(NC(=O)c2c[nH]c3ccccc3c2=O)cn1 [Compound 235, N-(6-isopropyl-3-pyridyl)-4-oxo-1H-quinoline-3-carboxamide]	< 10	++ (between 25% to 100%)
CCOc1ccccc1-c1cc(C(C)(C)C)c(O)cc1NC(=O)c1c[nH]c2ccccc2c1=O [Compound 23, N-[2-(2-ethoxyphenyl)-5-hydroxy-4-tert-butyl-phenyl]-4-oxo-1H-quinoline-3-carboxamide]	< 10	++ (between 25% to 100%)
O=C(Nc1ccc(C23CC4CC(CC(C4)C2)C3)cc1)c1c[nH]c2ccccc2c1=O [Compound 455, N-[4-(1-adamantyl)phenyl]-4-oxo-1H-quinoline-3-carboxamide]	< 10	++ (between 25% to 100%)
Cc1ccc2c(c1)c(=O)c(C(=O)Nc1ccccc1-c1ccccc1)cn2C [Compound 128, 1,6-dimethyl-4-oxo-N-(2-phenylphenyl)-1H-quinoline-3-carboxamide]	25 to 60	+ (<25%)
O=C(Nc1ccc2c(C(F)(F)F)c[nH]c2c1)c1c[nH]c2ccccc2c1=O [Compound 545, 4-oxo-N-[3-(trifluoromethyl)-1H-indol-6-yl]-1H-quinoline-3-carboxamide]	< 10	+++ (>100%)
CC(C)(C)c1cc(C(C)(C)C)c(NC(=O)c2c[nH]c3ccccc3c2=O)cc1O [Compound 433, N-(5-hydroxy-2,4-ditert-butyl-phenyl)-4-oxo-1H-quinoline-3-carboxamide]	< 10	
CCCc1ccc(NC(=O)c2c[nH]c3ccccc3c2=O)cc1NS(C)(=O)=O [Compound 340, N-(3-methylsulfonylamino-4-propyl-phenyl)-4-oxo-1H-quinoline-3-carboxamide]	< 10	++ (between 25% to 100%)
CC(=O)N1CC2(CC2)c2ccc(NC(=O)c3c[nH]c4ccccc4c3=O)cc21 [Compound 175, 4-Oxo-1,4-dihydro-quinoline-3-carboxylic acid N-(1′-Acetyl-1′,2′-dihydrospiro[cyclopropane-1,3′-3H-indol]-6′-yl)-amide]	10 to 25	++ (between 25% to 100%)
O=C(Nc1ccccc1OCc1ccccc1)c1c[nH]c2ccccc2c1=O [Compound 240, N-(2-benzyloxyphenyl)-4-oxo-1H-quinoline-3-carboxamide]	< 10	++ (between 25% to 100%)
O=C(Nc1ccc(N2CC[C@H](O)C2)cc1C(F)(F)F)c1c[nH]c2ccccc2c1=O [Compound 655, (S)-N-(4-(3-hydroxypyrrolidin-1-yl)-2-(trifluoromethyl)phenyl)-4-oxo-1,4-dihydroquinoline-3-carboxamide]	< 10	++ (between 25% to 100%)
O=C(Nc1ccccc1-c1nc(-c2ccc(Cl)cc2)no1)c1c[nH]c2ccccc2c1=O [Compound 102, N-[2-[3-(4-chlorophenyl)-1,2,4-oxadiazol-5-yl]phenyl]-4-oxo-1H-quinoline-3-carboxamide]	10 to 25	++ (between 25% to 100%)
O=C(Nc1ccc2[nH]ncc2c1)c1c[nH]c2ccccc2c1=O [Compound 217, N-(1H-indazol-5-yl)-4-oxo-1H-quinoline-3-carboxamide]	10 to 25	++ (between 25% to 100%)
Cc1cc(NC(=O)c2c[nH]c3ccccc3c2=O)ccc1F [Compound 257, N-(4-fluoro-3-methyl-phenyl)-4-oxo-1H-quinoline-3-carboxamide]	< 10	++ (between 25% to 100%)
N#CCc1ccccc1NC(=O)c1c[nH]c2ccccc2c1=O [Compound 308, N-[2-(cyanomethyl)phenyl]-4-oxo-1H-quinoline-3-carboxamide]	10 to 25	++ (between 25% to 100%)
CCCc1ccc(N)cc1NC(=O)c1c[nH]c2ccccc2c1=O [Compound 41, N-(5-amino-2-propyl-phenyl)-4-oxo-1H-quinoline-3-carboxamide]		++ (between 25% to 100%)
Cc1cccc2[nH]cc(C(=O)Nc3ccc(N4CCCC(C)C4)cc3C(F)(F)F)c(=O)c12 (stereo not drawn) [Compound 643, 5-methyl-N-[4-(3-methyl-1-piperidyl)-2-(trifluoromethyl)phenyl]-4-oxo-1H-quinoline-3-carboxamide]	< 10	++ (between 25% to 100%)
NS(=O)(=O)c1ccccc1NC(=O)c1c[nH]c2ccccc2c1=O [Compound 78, 4-oxo-N-(2-sulfamoylphenyl)-1H-quinoline-3-carboxamide]	25 to 60	+ (<25%)
CCCOC(=O)NCC(C)(C)c1ccc(NC(=O)c2c[nH]c3ccccc3c2=O)cc1 [Compound 416, [2-methyl-2-[4-[(4-oxo-1H-quinolin-3-yl)carbonylamino]phenyl]-propyl]aminoformic acid propyl ester]	< 10	++ (between 25% to 100%)
O=C(Nc1ccccc1-c1ccc2c(c1)OCO2)c1c[nH]c2ccccc2c1=O [Compound 135, N-(2-benzo[1,3]dioxol-5-ylphenyl)-4-oxo-1H-quinoline-3-carboxamide]	< 10	+++ (>100%)
O=C(Nc1ccc(CO)cc1)c1c[nH]c2ccccc2c1=O [Compound 209, N-[4-(hydroxymethyl)phenyl]-4-oxo-1H-quinoline-3-carboxamide]	10 to 25	++ (between 25% to 100%)
O=C(Nc1ccc(N2CCC[C@H]2C(=O)O)cc1C(F)(F)F)c1c[nH]c2ccccc2c1=O [Compound 567, (S)-1-[4-[(4-oxo-1H-quinolin-3-yl)carbonylamino]-3-(trifluoromethyl)phenyl]pyrrolidine-2-carboxylic acid]	< 10	++ (between 25% to 100%)
